The text below walks through data of article PMC6326523, “A high-throughput screen to identify novel small molecule inhibitors of the Werner Syndrome Helicase-Nuclease (WRN)” (PLoS ONE, 2019).

As usually defined, the IC50 is the concentration that inhibits the measured activity by half.

Each structure is given as a SMILES string. Like-named read-outs stand apart in the source and are kept apart here.

What all share (assay type): biochemical
Test [1] deals with T1, WRN helicase domain fragment (Homo sapiens, UniProt Q14191).
T1 construct: GST (N); made in house
Put plainly: WRN-hel-f2 protocol qHTS confirmatory (15 compound confirmatory assay). The note with it: NA = Not Active. On the procedure:
The structures of the members of this collection are available in the PubChem portal https://pubchem.ncbi.nlm.nih.gov/. For both the 350,000 small molecule collection and the LOPAC^1280 screens, 3 μL of GST-WRN500-946 or reaction buffer only were dispensed using a solenoid-valve nanoliter dispenser into a black 1536-well plate (Greiner). Twenty three nL of each serially diluted compound (0.08–50 μM for the LOPAC screen and 0.003–114 μM for the larger library screen) or control were added to each well using a Kalypsys pintool equipped with a 1536-pin array. Plates were incubated at room temperature for 15 min, followed by initiation of the reactions via the addition of 1 μL of substrate (100 nM FORKF and 2 mM ATP final concentrations). Plates were transferred to a ViewLux high-throughput CCD imager and fluorescence was measured in kinetic mode using an excitation filter of 525 nm and emission filter of 598 nm.
On the technique in general: qHTS replaces the single test concentration by a dilution series.

Test [2] deals with T2, full-length FANCJ helicase (Homo sapiens, UniProt Q9BX63).
T2 construct: Full length recombinant WRN [18], BLM [19], and FANCJ [20] proteins were purified from insect cells; made in house; host or cells: insect cells
T2 sequence (Q9BX63 1-1249): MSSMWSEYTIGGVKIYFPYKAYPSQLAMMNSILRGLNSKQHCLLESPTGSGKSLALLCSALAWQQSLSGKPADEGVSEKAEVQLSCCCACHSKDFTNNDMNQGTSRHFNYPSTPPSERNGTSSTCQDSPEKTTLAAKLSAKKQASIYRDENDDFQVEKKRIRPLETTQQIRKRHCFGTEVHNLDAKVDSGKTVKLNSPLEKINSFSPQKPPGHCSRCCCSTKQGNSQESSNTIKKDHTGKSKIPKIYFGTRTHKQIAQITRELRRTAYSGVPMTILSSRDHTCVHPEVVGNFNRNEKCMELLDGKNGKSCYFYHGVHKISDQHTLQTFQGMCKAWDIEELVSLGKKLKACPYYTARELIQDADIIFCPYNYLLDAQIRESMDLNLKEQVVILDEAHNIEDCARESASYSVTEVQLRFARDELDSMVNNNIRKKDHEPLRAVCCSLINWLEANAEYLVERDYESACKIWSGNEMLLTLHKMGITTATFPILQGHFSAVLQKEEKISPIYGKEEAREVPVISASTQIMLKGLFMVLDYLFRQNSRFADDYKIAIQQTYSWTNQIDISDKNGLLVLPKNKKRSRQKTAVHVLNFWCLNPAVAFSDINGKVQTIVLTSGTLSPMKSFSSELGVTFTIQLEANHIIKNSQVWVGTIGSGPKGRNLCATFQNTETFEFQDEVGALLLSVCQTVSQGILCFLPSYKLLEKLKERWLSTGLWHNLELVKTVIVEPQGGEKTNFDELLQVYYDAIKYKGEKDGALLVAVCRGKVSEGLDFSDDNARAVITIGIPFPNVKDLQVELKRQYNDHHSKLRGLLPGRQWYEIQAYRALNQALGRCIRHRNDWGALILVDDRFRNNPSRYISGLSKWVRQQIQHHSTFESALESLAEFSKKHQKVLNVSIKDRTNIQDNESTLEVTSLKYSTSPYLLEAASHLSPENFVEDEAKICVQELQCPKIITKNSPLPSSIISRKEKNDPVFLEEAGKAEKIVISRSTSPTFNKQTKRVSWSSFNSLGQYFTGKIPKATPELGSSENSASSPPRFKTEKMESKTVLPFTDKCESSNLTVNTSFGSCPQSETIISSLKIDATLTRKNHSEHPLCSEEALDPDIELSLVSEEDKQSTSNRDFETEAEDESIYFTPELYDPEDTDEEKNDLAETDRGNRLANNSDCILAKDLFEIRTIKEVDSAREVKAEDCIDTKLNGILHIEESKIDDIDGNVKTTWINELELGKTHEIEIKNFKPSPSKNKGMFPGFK
As to the kind of experiment: Radiometric helicase assay, full-length FANCJ. The note with it: for IC50: full-length FANCJ 5 nM, FORKR 0.5 nM. The method, then:
(§1) Fifteen μL of reaction buffer was added to a microcentrifuge tube followed by the addition of 1 μL of selected compounds (0.5–100 μM final concentration) or DMSO. One μL of WRN (full length), RECQ1, FANCJ, BLM or control was added to each reaction and incubated at room temperature for 15 min. Three μL of substrate (0.5 nM FORKR and 2 mM ATP final concentrations) were added to all reactions which were incubated at 37°C for 15 min. Reactions were stopped with the addition of 20 μL of 2X STOP dye containing EDTA, glycerol, bromphenol blue and xylene cyanol. Samples were electrophoresed for 1.5 hr at 200 V on a 12% non-denaturing PAGE gel in 1X TBE Buffer.
(§2) Three compounds identified from the cherry-picked set were tested for their effects on WRN exonuclease activity (20 nM) on the FORKR DNA substrate (1 nM) as well as DNA unwinding by full-length BLM (0.1 nM) and FANCJ (5 nM) helicases, which belong to the same Superfamily 2 as WRN [25], to assess their specificity for inhibition of WRN-catalyzed unwinding of the FORKR DNA substrate (0.5 nM). […] Nonetheless, these two compounds were also further tested in cell-based assays to assess their effects on proliferation.
(§3) Supplementary file pone.0210525.s005.TIF: S5 Fig Specificity of select WRN inhibitors for inhibition of other human helicases. (A) Quantitation of full-length BLM helicase (0.1 nM) activity on the FORKR DNA substrate (0.5 nM) with increasing concentration of each compound (0–100 μM). (B) Quantitation of full-length FANCJ (5 nM) helicase activity on the FORKR DNA substrate (0.5 nM) with increasing concentration of each compound (0–100 μM). (TIF) Click here for additional data file.

Another test deals with T3, full-length WRN helicase (Homo sapiens, UniProt Q14191).
T3 construct: Full length recombinant WRN [18], BLM [19], and FANCJ [20] proteins were purified from insect cells; made in house; host or cells: insect cells
As to the kind of experiment: Radiometric helicase inhibitor assay, full-length WRN unwinding of FORKR DNA substrate.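 As to all read-outs here: WRN preincubated with compound 15 min at room temperature, then unwinding run 15 min at 37 °C with 2 mM ATP, relative to WRN unwinding without compound (100%).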 As to conditions: FORKR 0.5 nM; for remaining activity at 50 µM: 50 μM compound, read-out: % Control WRN Helicase Activity.

Another test has as its target T4, full-length BLM helicase (Homo sapiens, UniProt P54132).
T4 construct: Full length recombinant WRN [18], BLM [19], and FANCJ [20] proteins were purified from insect cells; made in house; host or cells: insect cells
Put plainly: Radiometric helicase assay, full-length BLM. The note with it: for IC50: full-length BLM 0.1 nM, FORKR 0.5 nM. The method, then: as §1, §2, §3

The mark [3] stands for this setting: radiometric assay, full-length WRN 1 nM, compound 0-100 μM, read-out: IC50.
[4] abbreviates: resynthesized or repurified compounds, full-length WRN, read-out: IC50 (μM): WRN.

T3 sequence (Q14191 whole entry): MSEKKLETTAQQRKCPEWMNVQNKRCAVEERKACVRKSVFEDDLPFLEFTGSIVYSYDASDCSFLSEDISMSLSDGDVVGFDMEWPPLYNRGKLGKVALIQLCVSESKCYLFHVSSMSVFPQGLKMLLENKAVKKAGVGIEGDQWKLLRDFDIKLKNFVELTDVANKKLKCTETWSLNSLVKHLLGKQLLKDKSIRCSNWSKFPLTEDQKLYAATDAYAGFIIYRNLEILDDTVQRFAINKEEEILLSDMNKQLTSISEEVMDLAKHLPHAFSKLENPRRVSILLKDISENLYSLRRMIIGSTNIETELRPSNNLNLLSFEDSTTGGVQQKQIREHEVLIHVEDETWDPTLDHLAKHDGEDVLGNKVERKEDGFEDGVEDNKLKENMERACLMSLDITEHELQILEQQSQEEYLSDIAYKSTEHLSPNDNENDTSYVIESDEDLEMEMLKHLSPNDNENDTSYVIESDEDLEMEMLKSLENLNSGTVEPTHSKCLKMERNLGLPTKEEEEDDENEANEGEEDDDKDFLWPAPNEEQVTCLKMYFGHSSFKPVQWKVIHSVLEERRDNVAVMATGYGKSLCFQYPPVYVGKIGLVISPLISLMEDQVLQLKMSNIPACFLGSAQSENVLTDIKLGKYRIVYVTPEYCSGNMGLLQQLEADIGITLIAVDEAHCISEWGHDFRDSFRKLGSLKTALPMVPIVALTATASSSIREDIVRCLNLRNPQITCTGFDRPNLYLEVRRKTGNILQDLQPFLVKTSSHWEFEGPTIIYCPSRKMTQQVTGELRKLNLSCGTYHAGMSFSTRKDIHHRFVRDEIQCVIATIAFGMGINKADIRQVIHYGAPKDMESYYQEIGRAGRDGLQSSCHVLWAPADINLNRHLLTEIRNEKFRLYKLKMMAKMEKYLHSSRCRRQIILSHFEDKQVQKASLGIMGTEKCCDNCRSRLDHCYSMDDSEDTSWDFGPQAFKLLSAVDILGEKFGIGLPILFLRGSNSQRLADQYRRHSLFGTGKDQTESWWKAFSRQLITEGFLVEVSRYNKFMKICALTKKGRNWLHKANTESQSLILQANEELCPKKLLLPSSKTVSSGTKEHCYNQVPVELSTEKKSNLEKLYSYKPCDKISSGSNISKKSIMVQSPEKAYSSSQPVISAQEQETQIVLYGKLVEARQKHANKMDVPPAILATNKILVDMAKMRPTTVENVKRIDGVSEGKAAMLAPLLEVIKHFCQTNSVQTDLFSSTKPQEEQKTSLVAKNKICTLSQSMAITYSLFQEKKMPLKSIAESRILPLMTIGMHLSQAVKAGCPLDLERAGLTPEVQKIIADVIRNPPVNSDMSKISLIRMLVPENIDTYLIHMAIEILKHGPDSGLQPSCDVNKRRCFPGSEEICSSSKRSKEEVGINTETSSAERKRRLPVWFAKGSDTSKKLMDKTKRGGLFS
T4 sequence (P54132 whole entry): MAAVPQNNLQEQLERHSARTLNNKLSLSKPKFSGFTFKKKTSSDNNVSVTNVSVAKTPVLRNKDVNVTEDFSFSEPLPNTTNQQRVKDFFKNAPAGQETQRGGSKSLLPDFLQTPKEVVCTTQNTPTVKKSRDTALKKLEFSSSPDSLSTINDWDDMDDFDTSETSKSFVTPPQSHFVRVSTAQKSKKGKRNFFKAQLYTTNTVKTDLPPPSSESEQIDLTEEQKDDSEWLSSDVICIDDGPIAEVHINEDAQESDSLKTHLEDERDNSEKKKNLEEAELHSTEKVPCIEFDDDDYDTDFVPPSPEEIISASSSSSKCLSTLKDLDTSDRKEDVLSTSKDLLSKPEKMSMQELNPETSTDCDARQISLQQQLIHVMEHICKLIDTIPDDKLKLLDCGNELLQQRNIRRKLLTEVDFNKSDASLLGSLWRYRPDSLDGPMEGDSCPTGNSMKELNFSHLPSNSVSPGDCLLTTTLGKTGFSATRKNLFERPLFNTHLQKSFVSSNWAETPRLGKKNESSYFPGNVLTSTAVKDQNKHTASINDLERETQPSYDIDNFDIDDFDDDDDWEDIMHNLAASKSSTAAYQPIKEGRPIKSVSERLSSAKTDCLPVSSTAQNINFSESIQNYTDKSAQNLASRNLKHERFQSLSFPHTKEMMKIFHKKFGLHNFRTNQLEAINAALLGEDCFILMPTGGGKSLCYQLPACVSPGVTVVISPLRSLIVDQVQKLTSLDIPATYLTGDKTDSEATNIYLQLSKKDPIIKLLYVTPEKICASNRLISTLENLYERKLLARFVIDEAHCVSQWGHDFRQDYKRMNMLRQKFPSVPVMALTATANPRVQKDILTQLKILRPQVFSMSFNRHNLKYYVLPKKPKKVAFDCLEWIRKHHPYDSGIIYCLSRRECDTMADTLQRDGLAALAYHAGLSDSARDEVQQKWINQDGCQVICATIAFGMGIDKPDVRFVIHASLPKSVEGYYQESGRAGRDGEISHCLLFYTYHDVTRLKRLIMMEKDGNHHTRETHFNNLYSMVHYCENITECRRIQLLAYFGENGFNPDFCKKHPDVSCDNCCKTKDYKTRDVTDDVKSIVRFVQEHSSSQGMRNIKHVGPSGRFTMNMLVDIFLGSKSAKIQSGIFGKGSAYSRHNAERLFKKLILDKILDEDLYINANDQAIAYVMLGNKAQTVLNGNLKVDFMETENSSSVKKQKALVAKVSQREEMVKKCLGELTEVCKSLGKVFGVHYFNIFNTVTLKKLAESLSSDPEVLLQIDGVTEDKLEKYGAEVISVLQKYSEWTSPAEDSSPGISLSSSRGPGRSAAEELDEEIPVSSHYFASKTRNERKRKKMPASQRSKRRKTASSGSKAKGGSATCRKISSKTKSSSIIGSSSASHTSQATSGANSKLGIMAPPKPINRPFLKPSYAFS
T1 sequence (Q14191 500-946): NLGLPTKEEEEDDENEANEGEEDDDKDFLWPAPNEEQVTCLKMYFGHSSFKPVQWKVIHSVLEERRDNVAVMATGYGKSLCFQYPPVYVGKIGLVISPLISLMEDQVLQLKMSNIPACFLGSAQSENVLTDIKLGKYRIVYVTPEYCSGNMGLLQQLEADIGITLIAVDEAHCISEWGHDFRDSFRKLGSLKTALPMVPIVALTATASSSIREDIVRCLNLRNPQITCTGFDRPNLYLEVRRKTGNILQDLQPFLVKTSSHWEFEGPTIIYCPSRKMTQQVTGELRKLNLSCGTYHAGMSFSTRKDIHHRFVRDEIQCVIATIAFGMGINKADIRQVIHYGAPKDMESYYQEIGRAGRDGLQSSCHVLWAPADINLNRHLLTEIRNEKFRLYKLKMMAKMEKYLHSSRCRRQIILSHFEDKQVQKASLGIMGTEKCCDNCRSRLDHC
Description for full-length WRN helicase: The compounds were tested at a single concentration of 50 μM in the radiometric helicase assay with full-length recombinant WRN protein (1 nM) and the FORKR DNA substrate (0.5 nM) as described in the Materials and Methods section.
For each compound, we performed titrations over a wide range of concentrations with a fixed concentration of full-length WRN protein (1 nM), and quantitated unwinding as a percentage of full-length WRN unwinding of the FORKR DNA substrate (0.5 nM) in the absence of compound (Fig 6A and 6B, S3 Fig). […] In addition to determining an IC50 value for each compound, we also conducted helicase assays to determine the reversibility of inhibition by each compound tested. […] The reaction was diluted 100-fold with the addition of DNA substrate (0.5 nM final concentration) and ATP (2 mM final concentration) and unwinding was measured (Fig 7A–7D, S4 Fig). Inhibition was either classified as reversible, partially reversible, minimally reversible, or irreversible based on the ability of helicase activity to recover after dilution of the compound 100-fold.

As to `Cc1ccc(-c2csc(NS(=O)(=O)c3cccc(F)c3)n2)o1` [MLS002251300-02], the IC50 stood at 20 µM in test [1]; 28.5 ± 2 µM in test [2]; 4 µM on full-length WRN helicase (setting [3]); 5 ± 1.4 µM on full-length WRN helicase (setting [4]); 13 ± 2.6 µM on full-length BLM helicase. For the same compound, the “IC50 for WRN helicase inhibition fold less than that observed for FANCJ” value in test [2] (WRN vs FANCJ) is recorded as 6 fold. Besides, the remaining activity at 50 µM at full-length WRN helicase (full-length WRN 1 nM) is 1%. Further, the “IC50 for WRN helicase inhibition fold less than that observed for BLM” value on full-length BLM helicase (WRN vs BLM) worked out at 2.5 fold.
Regarding `COc1ccc2nc(O)c(-c3noc(-c4ccc(F)cc4)n3)cc2c1` [NCGC00029283-02], the IC50 in test [1] came out at 0.45 µM; in test [2], 3.4 ± 0.5 µM; on full-length WRN helicase (setting [3]), 3 µM; on full-length WRN helicase (setting [4]) it was 2.3 ± 0.6 µM; on full-length BLM helicase, 12.5 ± 1.8 µM. Moreover, the remaining activity at 50 µM at full-length WRN helicase (full-length WRN 1 nM) worked out at 6%.
Consider `COc1ccc2nc(O)c(-c3noc(-c4ccccc4)n3)cc2c1` [NCGC00063279-02], for which the IC50 in test [1] amounted to 2.5 µM; in test [2] it was 13.9 ± 2.6 µM; at full-length WRN helicase (setting [3]), 12 µM; on full-length WRN helicase (setting [4]), 13 ± 3.6 µM; against full-length BLM helicase, 46.1 µM. Besides, the remaining activity at 50 µM at full-length WRN helicase (full-length WRN 1 nM) was 18%.
